Assay results reported in US11572557B2, “Photoreversible acylation reagents” (The Board of Trustees of the Leland Stanford Junior …, priority 2018, dated 2023).

Tests used:
12 nt DNA = test: Control incubation of analogous 12 nt DNA with PCA 1 (PAGE); conditions: analogous 12 nt DNA incubated with PCA 1
[1] = test system: 34 nt hammerhead ribozyme RNA; test: Hammerhead ribozyme cleavage of Cy5-labeled substrate (urea PAGE); format: biochemical
Text: In this example, the ability of photocloaking to control the more complex function of a ribozyme RNA was examined. To form proper tertiary structure and initiate activity, RNA-cleaving ribozymes hybridize and bind metals (See Y Liu, T. J. Wilson, and D. M. J. Lilley Nat. Chem. Biol. 2017, 13, 508-13, the disclosure of which is herein incorporated by reference. Several examples of photocontrolled ribozymes have been reported previously (See S. G. Chaulk and A. M. MacMillan Nucleic Acids Res. 1998, 26, 3173-78; A. Nierth, M. Singer and A Jaschke Chem. Commun. (Camb). 2010, 46, 7975-77; D. D. Young and A. Dieters Bioorganic Med. Chem. Lett. 2006, 16, 2658-61; and S. G. Chaulk and A. M. MacMillan, 2007 cited supra; the disclosures of which are herein incorporated by reference), with the goal of studying ribozyme structure and folding. All prior studies, however, have been performed with modifications incorporated into RNAs during solid-phase synthesis. Thus, PCA 1 was tested whether it could be used to block a ribozyme in a single post-synthetic step, and subsequently phototrigger its activity. A 34 nt hammerhead ribozyme RNA (FIG. 18A; Seq. ID No. 5) was cloaked under standard conditions at room temperature and isolated from excess reagent and DMSO by precipitation. The cloaked ribozyme (200 nM) was then incubated with Cy5-labeled substrate (500 nM) in 50 mM Tris pH=6.0, 10 mM MgCl2 for 1 hour. The reaction was stopped by the addition of 8 M urea, 100 mM EDTA solution and then analyzed by urea PAGE (FIGS. 18B and 18C). […] The initial rates of substrate conversion were determined before and after cloaking (FIGS. 18D and 18E). […] After cloaking, the rate dropped 370-fold to 3.010^−3 min^−1, showing strong blocking of ribozyme function. […] Thus, ribozyme function can be robustly controlled by a direct photocloaking strategy.

[2] = test system: 105 nt F30 Broccoli aptamer; test: Broccoli aptamer folding / DFHBI fluorescence emission in vitro; format: biochemical; conditions: RNA cloaked 4 h with 100 mM PCA in water, no light
Protocol: In this example, the ability of PCAs to control longer RNAs produced by transcription was tested. Photocontrolled aptamers have recently gained interest due to their potential for therapeutic and imaging applications, as exemplified by recent work by Langer and Kohane in which a 26nt nucleolin-binding aptamer for cancer targeting was reported (L. Li et al. Proc. Natl. Acad. Sci. 2014, 111, 17099-103, the disclosure of which is herein incorporated by reference; See also, M. C. Buff et al Nucleic Acids Res. 2009, 38, 2111-18; L. Qiu et al. J. Am. Chem. Soc. 2013, 135, 12952-55; A Heckel and G. Mayer J. Am. Chem. Soc. 2005, 12, 822-23; and A. Pinto et al. ACS Chem. Biol. 2012, 7, 360-66; the disclosure of which are herein incorporated by reference). […] Broccoli RNA folds into a compact tertiary structure, forming a binding site for the DFHBI dye, which results in a strong increase in fluorescence.
F-30 Broccoli DNA template (3 ng) (Table S1) was amplified by PCR (98° C. for 30 s; 30 times: 98° C. for 10 s, 61° C. for 30 s, 72° C. for 30 s; 72° C. for 5 min, 4° C. forever) using Phusion High-Fidelity PCR master Mix (NEB), and primers mix in 50 μL reaction, according to the NEB protocol. […] Fluorescent emission spectra were recorded on a Fluorolog 3-11 instrument (Jobin Yvon-SPEX), λex=450 nm at 25° C. […]

[3] = test system: F30-2xd Broccoli aptamer RNA in HeLa cells; test: Epifluorescence microscopy of HeLa cells transfected with 237 nt Broccoli aptamer RNA; format: cell-based, human
Protocol: In this example, the capability to use this photocloaking strategy to switch on RNA function in cells was assessed by transfecting a cloaked Broccoli RNA construct into human cells and then exposing cells to light was explored. For these experiments, a larger 237 nt RNA (Seq. ID No. 7) construct encoding two dimeric Broccoli aptamers was prepared. This construct is known to be stable in the intracellular medium (G. S. Filonoy et al. Chem. Biol. 2015, 22 (5), 649-60, the disclosure of which is herein incorporated by reference). Accordingly, F30-2xdB_2 DNA (100 pmol; Seq. ID No. 8) was 5′ adenylated using Mth Ligase (100 pmol, NEB) according to NEB's protocol. Mini Elute columns, and PNI Buffer (Qiagen) were used to clean up double stranded DNA samples according to manufacturer's instructions. ssDNAs F30-2xdB_2 (40 pmol) and F30-2xdB_1 (20 pmol) were ligated according to NEB description, using Thermostable 5′ App DNA/RNA Ligase (40 pmol, NEB). Ligated DNA was purified on DNA Clean&Concentrator 5 columns (Zymo Research) using Zymo's protocol. F-30 2xd Broccoli ssDNA template (3 ng) was amplified by PCR (98° C. for 30 s; 30 times: 98° C. for 10 s, 60° C. for 30 s, 72° C. for 30 s; 72° C. for 5 min, 4° C. forever) using Phusion High-Fidelity PCR master Mix (NEB), and primers mix in 50 μL reaction, according to the NEB protocol. […]

complementary DNA strand = test: Thermal denaturation (melting curve) of RNA template 1 annealed to complementary DNA; format: physicochemical; conditions: duplex with complementary DNA, phosphate buffer pH=7.2, 100 mM NaCl, 300 nM
Protocol: Hybridization of untreated, cloaked, and uncloaked RNA was examined. Initial experiments measured the effect of photocloaking on thermal stability of a duplex. Untreated and cloaked RNA template 1 (Seq. ID No. 2) were annealed to its complementary DNA strand in phosphate buffer pH=7.2, 100 mM NaCl at 300 nM by heating the sample to 95° C. for 2 min and then cooling to room temperature. Melting curves were obtained by monitoring the absorbance at 260 nm of the nucleic acid solution while increasing the temperature at a rate of 1° C./min. Curves were smoothed by adjacent averaging.

[4] = test system: complementary fluorogenic DNA (Q-STAR) probes; test: Nucleic acid-templated fluorogenic Q-STAR reaction (hybridization); format: biochemical
Protocol: To further test the effect of cloaking on hybridization, a nucleic acid-templated reaction was employed with complementary fluorogenic DNA (Q-STAR) probes (R. M. Franzini and E. T. Kool J. Am. Chem. Soc. 2009, 131, 16021-23; and W. A. Velema and E. T. Kool J. Am. Chem. Soc. 2017, 139, 5405-11; the disclosures of which are herein incorporated by reference). RNA template (untreated, cloaked or photo-uncloaked) was dissolved in 70 mM Tris-Borate buffer pH=7.0, 10 mM MgCl2 to a concentration of 200 nM. To this was added QSTAR probe (200 nM; Seq. ID No. 3) and TPP probe (400 nM; Seq. ID No. 4) and the fluorescence was monitored overtime at 25° C. on a Fluorolog 3-11 instrument (Jobin Yvon-SPEX). λex=497 nm and λem=519 nm. Plots were smoothed by adjacent averaging. […] After the cloaked RNA was exposed to light for up to an hour and subjected to the Q-STAR hybridization probes, a strong restoration of signal (82% of original) was observed (FIG. 17B), consistent with uncloaking at relatively high efficiency.

Compound	reaction with DNA (12 nt DNA) [%]	drop of rate vs mock-treated ribozyme ([1]; after cloaking with PCA 1) [fold]	initial rate of substrate conversion ([1]; cloaked RNA exposed to light) [min⁻¹]	ribozyme function after uncloaking ([1]; cloaked with PCA 1, after 365 nm light exposure)	ribozyme activity (substrate cleavage) ([1]; ribozyme cloaked with PCA 1, 200 nM, substrate 500 nM, 1 hour)	Broccoli RNA fluorescence with DFHBI [2]	fluorescence signal in cells ([3]; 237 nt RNA cloaked with PCA 2, HeLa cells, subsequent light exposure (30 minutes))	fluorescence signal in cells ([3]; 237 nt RNA cloaked with PCA 2, transfected in HeLa cells, no light)	difference in melting temperature vs untreated RNA strand (complementary DNA strand) [°C]	restoration of signal ([4]; cloaked RNA exposed to light for up to an hour)	fluorogenic templated reaction signal ([4]; cloaked RNA template 200 nM, no light, 25° C.)
COc1cc(COC(=O)n2ccnc2Cl)c([N+](=O)[O-])cc1OCCN(C)C [PCA 1, 4-(2-(dimethylamino)ethoxy)-5-methoxy-2-nitrobenzyl 2-chloro-1H-imidazole-1-carboxylate]	< 5	370	1.1	almost completely restored	almost complete abrogation of activity	strong suppression of fluorescence	–	–	–	–	–
COc1cc(C(C)OC(=O)n2ccnc2Cl)c([N+](=O)[O-])cc1OCCN(C)C (stereo not drawn) [PCA 2, 1-(4-(2-(dimethylamino)ethoxy)-5-methoxy-2-nitrophenyl)ethyl 2-chloro-1H-imidazole-1-carboxylate]	–	–	–	–	–	very dim fluorescence	emergence of a visible green fluorescence signal	no measurable signal above background	–	–	–
cloaked RNA template 1: RNA template 1 (Seq. ID No. 2, 5′ GCU CCC CAG CUU UCG C) acylated at 2′-OH with photocloaking groups (GCUCCCCAGCUUUCGC; RNA, backbone not given here; 2'-OH acylated with photocloaking groups, further chemistry not fully specified)	–	–	–	–	–	–	–	–	10	82 % of original	9 % of untreated RNA
